Literature values, collected in patent publication US7452871B2, “Compositions and methods for treating mammals with modified alginates and modified pectins” (EcoNugenics, Inc., priority 1999, dated 2008).

Assays:
[1] = rats
[2] = rats; remark: listed apart in the source
cancer metastasis = settings: modified citrus pectin: oral administration

Row | Substance | cholesterol excretion [1] | blood glucose levels after glucose administration [2] | suppressing or preventing metastases (cancer metastasis)
1 | AG-10 | enhanced cholesterol secretion | inhibited blood glucose levels from rising | 
2 | AG-270 | enhanced cholesterol secretion | inhibited blood glucose levels from rising | 
3 | modified citrus pectin |  |  | may be effective in suppressing or preventing metastases
